Test results from patent US20130172320A1, “PYRIDO [4,3-B] INDOLE AND PYRIDO [3,4-B] INDOLE DERIVATIVES AND METHODS OF USE” (priority 2010, published 2013).

How the values were obtained:
[1] = target: human recombinant histamine H1 receptor (Homo sapiens, UniProt P35367); test: Histamine H1 radioligand binding ([3H]Pyrilamine); conditions: compound at 1 μM; 1.2 nM [3H]Pyrilamine; read-out: Binding data (Percentage inhibition) Histamine H1 (1 μM)
Description: To evaluate in radioligand binding assays the activity of compounds of the invention, human recombinant histamine H1 receptor expressed in Chinese hamster ovary (CHO) cells (De Backer, M. et al, Biochem. Biophys. Res. Comm. 197(3):1601, 1993) in a modified Tris-HCl buffer (50 mM Tris-HCl, pH 7.4, 2 mM MgCl2, 100 mM NaCl, 250 mM Sucrose) was used. Compounds of the invention were incubated with 1.2 nM [^3H]Pyrilamine for 180 min at 25° C. Non-specific binding was estimated in the presence of 1 μM Pyrilamine. Receptor proteins were filtered and washed, the filters were then counted to determine [^3H]Pyrilamine specifically bound. Compounds were screened at 1 μM or lower, using 1% DMSO as vehicle. Biochemical assay results are presented as the percent inhibition of specific binding in Table 2.

[2] = target: human recombinant dopamine D2L receptor (Homo sapiens, UniProt P14416); test: Dopamine D2L radioligand binding ([3H]Spiperone); conditions: compound at 1 μM; read-out: Percentage inhibition of ligand binding, Dopamine (1 μM) D2L
Description: To evaluate in radioligand binding assays the activity of compounds of the invention, human recombinant dopamine D2L receptor expressed in Chinese hamster ovary (CHO) cells (Grandy, D. et al, Proc. Natl. Acad. Sci. USA. 86:9762, 1989; Hayes, G. et al, Mol. Endocrinol. 6:920, 1992) in a modified Tris-HCl buffer (50 mM Tris-HCl, pH 7.4, 1.4 mM Ascorbic Acid, 0.001% BSA, 150 mM NaCl) was used. Compounds of the invention were incubated with 0.16 nM [^3H]Spiperone for 120 min at 25° C. Non-specific binding was estimated in the presence of 10 μM Haloperidol. Receptor proteins were filtered and washed, the filters were then counted to determine [^3H]Spiperone specifically bound. Compounds were screened at 1 μM or lower, using 1% DMSO as vehicle. Biochemical assay results are presented as the percent inhibition of specific binding in Table 3.

[3] = target: T1, human recombinant serotonin (5-Hydroxytryptamine) 5-HT2A receptor (Homo sapiens, UniProt P28223); test: Serotonin 5-HT2A radioligand binding ([3H]Ketanserin); conditions: compound at 0.1 μM; read-out: Percentage inhibition of ligand binding, Serotonin (0.1 μM) 5-HT2A
T1 construct: expressed in transfected cells; host or cells: Chinese hamster ovary (CHO) K1 cells
Description: To evaluate in radioligand binding assays the activity of compounds of the invention, human recombinant serotonin (5-Hydroxytryptamine) 5-HT2A receptor expressed in Chinese hamster ovary (CHO) K1 cells (Bonhaus, D. et al, Br. J. Pharmacol. 115:622, 1995; Saucier, C. et al, J. Neurochem. 68:1998, 1997) in a 50 mM Tris-HCl buffer, pH 7.4, was used. Compounds of the invention were incubated with 0.5 nM [^3H]Ketanserin for 60 min at 25° C. Non-specific binding was estimated in the presence of 1 μM Mianserin. Receptor proteins were filtered and washed, the filters were then counted to determine [^3H]Ketanserin specifically bound. Compounds were screened at 1 μM or lower, using 1% DMSO as vehicle. Biochemical assay results are presented as the percent inhibition of specific binding in Table 4.

[4] = target: T2, human recombinant serotonin (5-Hydroxytryptamine) 5-HT2C receptor (Homo sapiens, UniProt P28335); test: Serotonin 5-HT2C radioligand binding ([3H]Mesulergine); conditions: compound at 0.1 μM; read-out: Percentage inhibition of ligand binding, Serotonin (0.1 μM) 5-HT2C
T2 construct: expressed in transfected cells; host or cells: Chinese hamster ovary (CHO) K1 cells
T2 sequence (P28335 33-458): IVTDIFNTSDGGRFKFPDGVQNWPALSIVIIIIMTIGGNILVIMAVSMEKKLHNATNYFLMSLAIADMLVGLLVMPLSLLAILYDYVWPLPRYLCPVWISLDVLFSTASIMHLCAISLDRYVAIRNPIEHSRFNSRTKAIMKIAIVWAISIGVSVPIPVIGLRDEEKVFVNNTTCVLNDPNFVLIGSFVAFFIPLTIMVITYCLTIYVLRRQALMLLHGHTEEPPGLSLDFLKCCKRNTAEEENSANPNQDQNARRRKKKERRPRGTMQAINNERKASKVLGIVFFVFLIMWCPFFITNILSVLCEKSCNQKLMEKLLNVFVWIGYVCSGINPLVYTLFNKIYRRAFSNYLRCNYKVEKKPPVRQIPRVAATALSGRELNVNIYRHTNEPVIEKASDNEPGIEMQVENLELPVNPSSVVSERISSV
Description: To evaluate in radioligand binding assays the activity of compounds of the invention, human recombinant serotonin (5-Hydroxytryptamine) 5-HT2C receptor expressed in Chinese hamster ovary (CHO) K1 cells (Wolf, W. et al, J. Neurochem. 69:1449, 1997) in a modified Tris-HCl buffer (50 mM Tris-HCl, pH 7.4, 0.1% Ascorbic Acid, 10 μM Pargyline) was used. Compounds of the invention were incubated with 1 nM [^3H]Mesulergine for 60 min at 25° C. Non-specific binding was estimated in the presence of 1 μM Mianserin. Receptor proteins were filtered and washed, the filters were then counted to determine [^3H]Mesulergine specifically bound. Compounds were screened at 1 μM or lower, using 1% DMSO as vehicle. Biochemical assay results are presented as the percent inhibition of specific binding in Table 4.

[5] = target: T3, human recombinant serotonin (5-Hydroxytryptamine) 5-HT6 receptor (Homo sapiens, UniProt P50406); test: Serotonin 5-HT6 radioligand binding ([3H]LSD); conditions: compound at 0.1 μM; read-out: Percentage inhibition of ligand binding, Serotonin (0.1 μM) 5-HT6
T3 construct: expressed in transfected cells; host or cells: human HeLa cells
Description: To evaluate in radioligand binding assays the activity of compounds of the invention, human recombinant serotonin (5-Hydroxytryptamine) 5-HT6 receptor expressed in human HeLa cells (Monsma, F. Jr. et al, Mol. Pharmacol. 43:320, 1993) in a modified Tris-HCl buffer (50 mM Tris-HCl, pH 7.4, 150 mM NaCl, 2 mM Ascorbic Acid, 0.001% BSA) was used. Compounds of the invention were incubated with 1.5 nM [3H]Lysergic acid diethylamide (LSD) for 120 min at 37° C. Non-specific binding was estimated in the presence of 5 μM Serotonin (5-HT). Receptor proteins were filtered and washed, the filters were then counted to determine [3H]LSD specifically bound. Compounds were screened at 1 μM or lower, using 1% DMSO as vehicle. Biochemical assay results are presented as the percent inhibition of specific binding in Table 4.

[6] = target: human recombinant serotonin (5-Hydroxytryptamine) 5-HT7 receptor (Homo sapiens, UniProt P34969); test: Serotonin 5-HT7 radioligand binding ([3H]LSD); conditions: compound at 0.1 μM; read-out: Percentage inhibition of ligand binding, Serotonin (0.1 μM) 5-HT7
Description: To evaluate in radioligand binding assays the activity of compounds of the invention, human recombinant serotonin (5-Hydroxytryptamine) 5-HT7 receptor expressed in Chinese hamster ovary (CHO) cells (Roth, B. et al, J. Pharmacol. Exp. Ther. 268:1403, 1994; Shen, Y. et al, J. Biol. Chem. 268:18200, 1993) in a modified Tris-HCl buffer (50 mM Tris-HCl, pH 7.4, 10 mM MgCl2, 0.5 mM EDTA) was used. Compounds of invention were incubated with 5.5 nM [^3H] Lysergic acid diethylamide (LSD) for 2 h at 25° C. Non-specific binding was estimated in the presence of 10 μM Serotonin (5-HT). Receptor proteins were filtered and washed, the filters were then counted to determine [^3H]LSD specifically bound. Compounds were screened at 1 μM or lower, using 1% DMSO as vehicle. Biochemical assay results are presented as the percent inhibition of specific binding in Table 4.

human recombinant dopamine D2L receptor, sequence (P14416 whole entry): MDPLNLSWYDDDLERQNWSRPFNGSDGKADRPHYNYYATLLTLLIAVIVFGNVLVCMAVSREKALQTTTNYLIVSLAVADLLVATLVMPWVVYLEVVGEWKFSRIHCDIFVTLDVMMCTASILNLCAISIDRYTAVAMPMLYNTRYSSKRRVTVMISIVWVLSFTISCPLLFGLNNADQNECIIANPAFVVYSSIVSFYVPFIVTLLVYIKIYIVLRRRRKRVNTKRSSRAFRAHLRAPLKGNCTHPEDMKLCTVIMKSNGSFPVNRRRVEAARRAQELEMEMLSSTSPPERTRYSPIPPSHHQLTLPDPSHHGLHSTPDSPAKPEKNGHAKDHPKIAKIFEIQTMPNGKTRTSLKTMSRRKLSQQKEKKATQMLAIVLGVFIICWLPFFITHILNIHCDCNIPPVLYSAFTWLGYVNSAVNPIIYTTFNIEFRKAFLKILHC
human recombinant histamine H1 receptor, sequence (P35367 whole entry): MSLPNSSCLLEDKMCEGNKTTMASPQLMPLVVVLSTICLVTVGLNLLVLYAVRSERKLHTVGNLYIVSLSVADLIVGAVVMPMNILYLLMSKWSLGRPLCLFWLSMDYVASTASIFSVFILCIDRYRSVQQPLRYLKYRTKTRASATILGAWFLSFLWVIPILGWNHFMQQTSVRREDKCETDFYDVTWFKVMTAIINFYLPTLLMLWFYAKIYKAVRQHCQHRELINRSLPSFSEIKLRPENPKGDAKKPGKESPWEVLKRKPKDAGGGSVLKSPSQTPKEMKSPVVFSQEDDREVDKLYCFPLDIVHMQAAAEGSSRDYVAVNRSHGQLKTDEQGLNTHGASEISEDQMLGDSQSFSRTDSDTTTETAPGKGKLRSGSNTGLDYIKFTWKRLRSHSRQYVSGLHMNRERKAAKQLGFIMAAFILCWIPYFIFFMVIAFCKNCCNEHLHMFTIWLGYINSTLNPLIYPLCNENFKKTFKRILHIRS
T1 sequence (P28223 whole entry): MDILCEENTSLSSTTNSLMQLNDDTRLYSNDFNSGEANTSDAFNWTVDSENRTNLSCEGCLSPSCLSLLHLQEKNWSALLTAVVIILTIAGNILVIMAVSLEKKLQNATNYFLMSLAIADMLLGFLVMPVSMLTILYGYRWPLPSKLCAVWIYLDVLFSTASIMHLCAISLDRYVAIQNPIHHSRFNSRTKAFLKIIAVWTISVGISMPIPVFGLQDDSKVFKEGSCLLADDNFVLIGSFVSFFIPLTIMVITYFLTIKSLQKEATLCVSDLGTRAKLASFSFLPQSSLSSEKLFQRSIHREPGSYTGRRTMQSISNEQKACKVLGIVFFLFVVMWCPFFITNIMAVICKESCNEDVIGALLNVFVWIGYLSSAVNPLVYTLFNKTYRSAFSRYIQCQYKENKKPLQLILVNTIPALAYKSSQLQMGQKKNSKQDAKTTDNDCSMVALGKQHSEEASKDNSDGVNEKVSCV
human recombinant serotonin (5-Hydroxytryptamine) 5-HT7 receptor, sequence (P34969 whole entry): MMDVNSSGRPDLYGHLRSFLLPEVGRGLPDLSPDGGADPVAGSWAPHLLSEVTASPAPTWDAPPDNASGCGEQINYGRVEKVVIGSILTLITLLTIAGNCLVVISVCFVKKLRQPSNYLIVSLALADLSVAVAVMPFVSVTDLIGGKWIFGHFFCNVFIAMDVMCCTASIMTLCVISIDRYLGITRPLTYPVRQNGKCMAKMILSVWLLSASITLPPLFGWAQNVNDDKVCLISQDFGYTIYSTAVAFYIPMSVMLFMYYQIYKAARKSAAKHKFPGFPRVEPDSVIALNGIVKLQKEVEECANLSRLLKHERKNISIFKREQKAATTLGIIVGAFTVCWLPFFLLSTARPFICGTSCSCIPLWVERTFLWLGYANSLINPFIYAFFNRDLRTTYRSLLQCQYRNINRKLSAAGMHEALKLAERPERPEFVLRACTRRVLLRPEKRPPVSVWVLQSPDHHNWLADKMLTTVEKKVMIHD
T3 sequence (P50406 whole entry): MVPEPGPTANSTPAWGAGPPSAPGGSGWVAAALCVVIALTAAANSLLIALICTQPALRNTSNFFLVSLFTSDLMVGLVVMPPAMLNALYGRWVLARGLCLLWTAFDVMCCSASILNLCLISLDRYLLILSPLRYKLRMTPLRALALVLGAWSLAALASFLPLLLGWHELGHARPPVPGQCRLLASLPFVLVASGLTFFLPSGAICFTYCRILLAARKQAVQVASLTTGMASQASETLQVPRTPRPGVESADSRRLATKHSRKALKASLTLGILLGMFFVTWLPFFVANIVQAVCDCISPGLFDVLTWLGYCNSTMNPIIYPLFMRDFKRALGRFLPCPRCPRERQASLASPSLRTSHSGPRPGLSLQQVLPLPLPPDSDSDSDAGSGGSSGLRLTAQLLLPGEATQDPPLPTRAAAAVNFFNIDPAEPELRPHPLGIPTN

## Cc1ccc2[nH]c3c(c2c1)CN(C)CC3(C)CCc1ccccc1 (stereo not drawn) [Compound 43]
[1]
  inhibition at 1 µM: 93%
[2]
  inhibition at 1 µM: 23%
[3]
  inhibition at 0.1 µM: 15%
[4]
  inhibition at 0.1 µM: -4%
[5]
  inhibition at 0.1 µM: 9%
[6]
  inhibition at 0.1 µM: -23%

## Cc1ccc2c(c1)c1c(n2C)C(C)(CCc2ccccc2)CN(C)C1 (stereo not drawn) [Compound 44]
[1]
  inhibition at 1 µM: 101%
[2]
  inhibition at 1 µM: 33%
[3]
  inhibition at 0.1 µM: 4%
[4]
  inhibition at 0.1 µM: 12%
[5]
  inhibition at 0.1 µM: 17%
[6]
  inhibition at 0.1 µM: 29%

## Cc1ccc2c(c1)c1c(n2C)C(C)(CCc2ccc(C)nc2)CN(C)C1 (stereo not drawn) [Compound 45]
[1]
  inhibition at 1 µM: 99%
[2]
  inhibition at 1 µM: 5%
[3]
  inhibition at 0.1 µM: 1%
[4]
  inhibition at 0.1 µM: 6%
[5]
  inhibition at 0.1 µM: -4%
[6]
  inhibition at 0.1 µM: -6%

## Cc1ccc2[nH]c3c(c2c1)CN(C)CC3(C)CCc1ccc(C)nc1 (stereo not drawn) [Compound 46, 2,4,8-Trimethyl-4-[2-(6-methyl-pyridin-3-yl)-ethyl]-2,3,4,5-tetrahydro-1H-pyrido[4,3-b]indole]
[1]
  inhibition at 1 µM: 34%
[2]
  inhibition at 1 µM: 3%
[3]
  inhibition at 0.1 µM: 7%
[4]
  inhibition at 0.1 µM: 8%
[5]
  inhibition at 0.1 µM: 6%
[6]
  inhibition at 0.1 µM: -10%
